# Experimental data taken from US20250108038A1 (priority 2023, published 2025).
# System: Wistar rats
# Experiment: Five Choice Serial Reaction Time Task, vITI version, repeated administration
# Assay type: in vivo, Wistar rat
# Set-up: Latency (Correct) / Latency (Incorrect): unit not given here
# Conditions: for Latency (Correct) / Latency (Incorrect) / Magazine Head Entries / Omissions / Reward Latency / Trials Completed: vITI, mean ± SEM
# Description: The behavioral tasks utilized were three versions of the rat Five Choice Serial Reaction Time Task (5C-SRTT), the standard version of the task (STD) with a fixed stimulus duration and a fixed intertrial interval, the variable stimulus duration (vSD) and the variable intertrial interval (vITI) version. The principal readout parameters in each task were the % Hit and the % correct choices (measures of sustained attention) and three measures of inhibitory response control (premature, perseverative, and timeout responses), although a number of additional outcome measures were obtained (see under Methods and Results below).
# Twenty-four adult (approx. 10 months old) male Wistar rats (Envigo, Inc, Indianapolis, IN) were used in the study. […] Subjects were double housed in polycarbonate cages (45×30×18 cm) with corncob bedding in a vivarium of constant temperature (21-23° C.) and humidity (40-50%). […] All behavioral testing was performed during the light portion (9 a.m.-5 p.m.) of the light/dark cycle (Monday thru Friday). Animals were cared for in accordance with the Guide for the Care and Use of Laboratory Animals (U.S. National Institutes of Health) and the experimental protocols were approved by the Institutional Animal Care and Use Committee at Augusta University (Protocol #2010-0044).
# The 5C-SRTT procedure (reviewed, Robbins, 2002. Psychopharmacology (Berl); 163(3-4):362-80) was conducted as we have described previously (Terry et al., 2014, Neurotoxicology and Teratology 44:18-29, 2014; Callahan et al., 2020, Neuropharmacology. August 15; 173:107994). […] Animals were trained in eight automated 5C-SRTT operant chambers (Med Associates, St. Albans, VT, USA), controlled by MedPC software (Med Associates). Briefly, each operant chamber was equipped with 5 apertures containing a photocell beam to detect nose pokes and a lamp (2.8 W) that could be illuminated randomly at varying durations. Food pellets (45 mg chow pellet, BioServ, Frenchtown, NJ, USA) were delivered automatically to a magazine, located on the opposite wall to the nose pokes, that was also equipped with a light that turned on to indicate that a pellet had been dispensed. The house-light remained on for the entire session unless an error or omission occurred. Training sessions began with the delivery of a food reward and retrieval triggered the first trial. […] Sessions ended when 40 minutes had lapsed or 100 trials had been completed.
# For this study, subjects were re-trained 5 days per week until they re-established a stable performance criteria with a fixed (1.0 sec) stimulus duration and a fixed ITI (5 sec) of 70-75% accuracy, <20% omissions and completion of all 100 trials for 5 consecutive days. Upon meeting these performance criteria animals were trained for one additional week and two groups of subjects (N=12) were assembled and balanced according to their performance accuracy, specifically the % Hit evaluation, which takes into account correct responses as well as all incorrect responses including the number of omissions. […] The vSD version of the task increases the attentional load while the vITI increases impulsivity-like behavior. The following outcome measures and behavioral domains were assessed: % Hit and % correct=sustained attention; omissions=attention/motivation; premature responses=impulsivity; perseverative responses=compulsivity; timeout responses=cognitive inflexibility; magazine head entries=appetitive motivation and compulsivity-like behavior; response latencies=information processing speed and/or motivation. For the STD version of the task, the stimulus duration (SD) was fixed at 1.0 sec and the ITI was fixed at 5 sec. In the vSD version of the task the following stimulus durations were presented in a pseudorandom manner: 0.3, 0.6, and 0.9 sec. In the vITI version, 2.5, 5.0, and 10.0 sec ITIs were employed in a pseudorandom manner. […]
# [1] = repeated 0.1 and 0.3 mg/kg IP, 10 sec ITI
# [2] = Group 1, 0.1 mg/kg, Drug Exp period
# [3] = Group 1, 0.1 mg/kg, Post-Drug Exp (vehicle washout) period
# [4] = Group 2, 0.3 mg/kg, Drug Exp period
# [5] = Group 2, 0.3 mg/kg, Post-Drug Exp (vehicle washout) period
smiles,measurement,setting,value
Clc1ccc(C2(OCC3OCCO3)c3ccccc3C3=NCCN32)cc1 (stereo not drawn) [Compound I-19],% Hit,repeated 0.1 and 0.3 mg/kg IP,modest decrease in accuracy that was limited to the 2.5 sec ITI
same,premature responses,[1],reduced the number of premature responses compared to both the pre- and post-drug conditions at the 10 sec ITI
same,timeout responses,[1],reduced the number of timeout responses compared to both the pre- and post-drug conditions at the 10 sec ITI
same,Latency (Correct),[2],0.99
same,Latency (Incorrect),[2],2.27 ± 0.12
same,Magazine Head Entries,[2],236.13
same,Omissions,[2],17.04
same,Reward Latency,[2],2.77
same,Trials Completed,[2],91.83 ± 4.15
same,Latency (Correct),[3],0.90 ± 0.03
same,Latency (Incorrect),[3],2.03 ± 0.09
same,Magazine Head Entries,[3],318.71 ± 34.88
same,Omissions,[3],9.63 ± 1.15
same,Reward Latency,[3],2.13
same,Trials Completed,[3],85.62 ± 4.17
same,Latency (Correct),[4],0.97
same,Latency (Incorrect),[4],2.26
same,Magazine Head Entries,[4],268.17
same,Omissions,[4],13.42
same,Reward Latency,[4],3.21
same,Trials Completed,[4],87.50
same,Latency (Correct),[5],0.81 ± 0.03
same,Latency (Incorrect),[5],1.82 ± 0.10
same,Magazine Head Entries,[5],415.04 ± 70.50
same,Omissions,[5],6.75 ± 1.44
same,Reward Latency,[5],2.06
same,Trials Completed,[5],78.46 ± 4.47
